In a melting point compilation (Tetko et al.; mined from patent text by program, amines drawn as free bases though some values may be those of a salt):

SMILES	melting point
CCSc1nccn1N1CCN(c2ccc(OC)cc2)CC1	112 °C
Fc1cccc(F)c1C1=NC(c2cc3sc(-c4ccc(OC(F)(F)F)cc4)cc3s2)CC1 (configuration not stated)	135 °C
Cc1c(SCCN2CCOCC2)ccnc1CSc1nc2ccccc2n1C(=O)N(C)C	117 to 119 °C
CC(O)C1(c2cccc(Cl)c2)CCN(C)CC1 (configuration not stated)	125 to 126 °C
N#CC(Cc1ccccn1)(c1ccc(F)cc1)c1ccc([N+](=O)[O-])c(C(F)(F)F)c1 (configuration not stated)	118 to 119 °C
OC(CCCCCCCCCOCc1ccccc1)c1ccc(OCc2ccccc2)c(OCc2ccccc2)c1 (configuration not stated)	45 to 47 °C
NS(=O)(=O)c1ccc(CCCCCO)s1	65 to 67 °C
N#CCc1ccc(-c2onc3ccccc23)cc1	118 to 121 °C
O=C1c2ccccc2-n2cnc(CO)c2[C@@H]2CCCN12	212 to 214 °C
BrCCCCOc1ccc2c(c1)OCO2	52 to 54 °C
CNC(=O)Oc1cccc(NC(=O)C=C(C)OC)c1	175 °C
CNC1=NS(=O)(=O)N=C1NCCSCc1nc[nH]c1C	98 to 110 °C
COc1ccc(CNn2nnc3c(-c4ccco4)ncnc32)cc1	166 to 168 °C
Cc1cccc(NC(=O)NC2N=C(C(C)C)c3cccc(C)c3N(CC(=O)C3CCCCC3)C2=O)c1 (configuration not stated)	142 to 146 °C
CC(C)(C)OC(=O)N1CCN(C(=O)N2CCOCC2)CC1	171 to 173 °C
CC(=O)N1CCc2ccccc2C1Cc1ccccc1N (configuration not stated)	142 to 148 °C
O=S(=O)(NCc1ccnnc1)c1cc(Br)cs1	120 to 122 °C
CCc1nc2c(C)cc(C)nc2n1Cc1cccc(C(=Cc2nnn[nH]2)c2ccccc2)c1	187 to 195 °C
CCCCc1cccc(-c2cn(C)cc(-c3ccccc3)c2=O)c1	87 to 89 °C
FC(F)(F)c1ccc(I)c(I)c1	62 to 64 °C
CSc1nn2c(N3CCN(CCO)CC3)cc(C)nc2c1S(=O)(=O)c1ccccc1	189 to 190 °C
CN1CC(CN)Oc2c(-c3ccccc3C(F)(F)F)cccc21 (configuration not stated)	90 °C
N#Cc1c(Cl)c2cccnc2n(Cc2ccccc2)c1=O	188 °C
Cc1nc(-c2ccc(C(F)(F)F)cc2)sc1N	146 to 148 °C

SMILES	melting point
CC(C)(C)c1ccc(NC(=O)c2ccccc2SSc2ccccc2C(=O)Nc2ccc(C(C)(C)C)cc2)cc1	135 to 138 °C
O=[N+]([O-])c1ccc(CO)c(Nc2nccc(-c3cccnc3)n2)c1	247 to 250 °C
C#CCCCN=C(NC#N)NCCSCc1[nH]cnc1C	99 to 103 °C
S=c1[nH]ccn1C1CCc2ccccc2C1 (configuration not stated)	233 to 234 °C
N#CCOc1ccccc1OCC#N	85 to 85.5 °C
CN(C)CCCn1cc(-c2ccccc2)sc1=Nc1ccccc1	84 to 86 °C
Nc1cnc(F)c(Br)c1	91 to 92 °C
O=C1CCN(C(=O)N2CCN3C(=O)OC(c4ccccc4)(c4ccccc4)C3C2)c2ccccc21 (configuration not stated)	202 to 205 °C
CCCOc1cccc(C2(c3ccncc3)N=C(N)N(C)C2=O)c1 (configuration not stated)	173 to 175 °C
CN(C)c1ccc(C2OCCN2CCNc2ccc(NCCN3CCOC3c3ccc(N(C)C)cc3)c3c2C(=O)c2c(O)ccc(O)c2C3=O)cc1 (configuration not stated)	150 to 154 °C
O=C1c2c(Cl)cccc2-n2cnc(-c3nnco3)c2[C@@H]2CCCN12	229 to 230 °C
CC(C)Cn1c(=O)n(C)c(=O)c2c(-c3ccsc3)c(Cc3ccccc3C(F)(F)F)sc21	113 to 114 °C
O=c1c(-c2ccccc2)c[nH]n1-c1ccccn1	132 to 133 °C
Cc1sc2c(c1C)C(c1ccc(Cl)cc1)=N[C@@H](CC(=O)Nc1ccc(O)cc1)c1nnc(C)n1-2	215 to 220 °C
O=c1[nH]c(N2CCN(CCCCN3CCCCC3)CC2)cc2c(Br)cccc12	165 to 166 °C
O=C(Nc1ccc(-n2nc(C(F)(F)F)cc2C(F)(F)F)cc1)c1ccno1	202 to 204 °C
CC(SC1COC(c2ccc(C(=O)Nc3ccc(F)cc3)cc2)OC1)C(O)(Cn1cncn1)c1ccc(F)cc1F (configuration not stated)	104 °C
CCOC(=O)CCc1cn(Cc2ccc(OCc3nc(-c4ccccc4)oc3C)cc2)nc1-c1ccc(F)cc1	93 to 94 °C
Cc1nc2ccccc2c(NCC(C)O)c1Br (configuration not stated)	147 to 149 °C
Cc1c(OCC(F)(F)F)ccnc1CS(=O)c1nc2ccccc2n1N (configuration not stated)	111 to 113 °C
O=C1CCC(N2Cc3cc(CNC(=O)c4ccccc4)ccc3C2=O)C(=O)N1 (configuration not stated)	266 to 268 °C
Brc1ccc2c(ccc3cc(Br)ccc32)c1	163 to 166 °C
FC(F)(F)c1cc(I)c2c(c1)ncn2-c1ccccc1	118 to 120 °C
O=C1OC(CO)CN1c1ccc(N2CC3CSCC3C2)c(F)c1 (configuration not stated)	165 to 167 °C

Second part, the molecule after the results:

melting point	SMILES
117 to 118 °C	CCCc1c(OCCCCCOc2cccc(NC(=O)C(=O)O)c2)ccc(C(C)=O)c1O
162 to 164 °C	CC(=O)NC[C@H]1CN(c2ccc(N3CCC(O)(CC#N)CC3)c(F)c2)C(=O)O1
238 to 240 °C	Cc1cc(=O)c2cc(NC(=O)C(=O)O)ccc2s1
157 to 158 °C	Cn1c(CC(=O)O)cc2c1C(=O)c1sccc1CC2
153 to 155 °C	CCC(=S)Nc1c(SC(F)(F)F)c(C#N)nn1-c1c(Cl)cc(C(F)(F)F)cc1SC
75 °C	CC(=O)C=Cc1ccc2sccc2c1
160 to 162 °C	O=C(O)Cc1cccc(C(=O)c2ccccc2)c1[N+](=O)[O-]
118 to 121 °C	C#CCN1N=C(c2ccc(OC)c(OC)c2)[C@@H]2CCCC[C@@H]2C1=O (relative stereo)
120 °C	CC(C)C(CO)NC(=O)c1nsc2ccc(-n3c(=O)cc(C(F)(F)F)n(C)c3=O)cc12 (configuration not stated)
152 to 153 °C	COc1ccc(O)c(C(=O)N2CC(Oc3ccc(NC(=O)OC(C)(C)C)cc3)C2)c1
226 to 227 °C	CC1CN(c2cc3c(cc2F)c(=O)c(C(=O)O)cn3CCF)CCN1 (configuration not stated)
165 to 166 °C	CSN(C=C(C#N)C#N)c1cccc(C(C)=O)c1
273 to 276 °C	COC(=O)c1ccc2c(c1)N(C)C(=O)c1cccnc1N2
258 to 259 °C	CCn1cc(C(=O)O)c(=O)cc1-c1ccc(N(C)C)cc1
74 to 76 °C	CN(C)C(=O)c1ccccc1[N+](=O)[O-]
104 to 106 °C	CCOC(=O)c1ccc(Cn2cnc3cccnc32)cc1
170 °C	Cc1nc(N)sc1S(=O)(=O)NC(C)(CO)CO
150 to 152 °C	CCC(=CC(CNC(=O)c1ccncn1)=NO)C(C)[N+](=O)[O-] (configuration not stated)
146 to 148 °C	CCOc1nc2ccccc2nc1NC(=O)N1CCN(c2cc(F)cc(F)c2)CC1
52 to 54 °C	COC(=O)C(C)C(C#Cc1ccccc1)c1ccc(OC)c(OC2CCCC2)c1 (racemic)
190 to 192 °C	COc1ccc(Cc2nccc3cc(O)ccc23)cc1OC
184 °C	CN(C)S(=O)(=O)c1cc(-c2csc(=Nc3ccc(Cl)cc3)n2C)ccc1Cl
168 to 170 °C	COc1nc(C)nc(NC(=O)NS(=O)(=O)c2cccc3c2C(Cl)=CC3)n1
40 °C	COC(=O)C1OC(CC(C)C)(c2ccc(Cl)cc2)OC1C(=O)OC (configuration not stated)
90 to 91 °C	CCOC(=O)CN1C(=O)C(N=[N+]=[N-])CCc2ccc(OC)cc21 (configuration not stated)
257 to 260 °C	CC(=O)Oc1cccc2oc(C(=O)Nc3ccc(CC4SC(=O)NC4=O)cc3)cc(=O)c12 (configuration not stated)
145 to 149 °C	CC(C)Nc1nc(S(C)(=O)=O)nc(Cl)c1-c1c(F)cccc1Cl

melting point	SMILES
58 to 60 °C	COc1ccc(C(=O)c2ccc(OCc3ccccc3)nc2)c(OC(C)(C)C(=O)OC(C)(C)C)c1
198 to 199 °C	Cc1nc(NC(=O)c2ccccc2)sc1C(=O)NCc1cccc(Cl)c1
119 to 120 °C	COc1ccc2c(c1)C(N1CCN(C)CC1)c1ccccc1CC2 (configuration not stated)
206 to 207 °C	COc1ccc(-c2csc(C=CC(=O)O)c2)cc1C(C)(C)C
101 to 102 °C	CCOC(=O)c1ccc(-c2nc(CCl)c(C)o2)s1
172 to 174 °C	N#Cc1nn(-c2c(Cl)cc(SC(F)(F)F)cc2Cl)c(N)c1I
183 to 184 °C	CNC(=O)C(=NO)c1ccccc1Oc1ccccc1
123 to 125 °C	N#Cc1ccc2c(c1)CCC2=O
> 250 °C	CS(=O)(=O)Nc1cc2oc(C(=O)O)cc(=O)c2cc1Oc1ccccc1
111 to 112 °C	CCOC(=O)CCNc1ncccc1NC(=O)c1cccc(Cl)c1
254 to 255 °C	Cn1nnc2c1C(=O)C(Cl)=C(Cl)C2=O
248 to 250 °C	Cc1nc2c(c3c1[nH]c1cc(Cl)ccc13)C(=O)CC(C)(C)C2
152 to 160 °C	COC(=O)CC[C@H](NC(=O)CCCCCCC1CNc2nc(NC(=O)C(C)(C)C)nc(O)c2C1)C(=O)OC (some centres not stated)
129 to 131 °C	COC(=O)c1cnc2c(c1)CCCCC2
178 to 179 °C	CS(=O)(=O)c1ccc(/C(=C2\CCN(CCC(=O)O)C2=O)c2ccc(Cl)cc2)cc1
94 to 96 °C	CCCCCC(COc1ccc(C(=O)O)cc1)c1ccc2c(c1)C(C)(C)CC(C)(C)O2 (racemic)
145 to 148 °C	C=CCn1c(=O)c(C(=O)O)c(NC(=O)CCl)c2cccnc21
209 to 212 °C	COc1cc(Nc2c(C#N)cnc3cc(-c4csc(CN5CCOCC5)c4)sc23)c(Cl)cc1Cl
125 to 127 °C	CCOC(=O)c1cc2n(c1)C(C)N(C(=O)OCC)c1ccccc1-2 (configuration not stated)
176 to 185 °C	CCOC(=O)c1ncn2c1cc(-c1ccccc1)c1ccccc12
276 to 278 °C	COc1cc2ncnc(N3CCc4cc([N+](=O)[O-])c(Cl)cc43)c2cc1OC
137 to 138 °C	CC(=O)Nc1cc(C(F)(F)F)ccc1-c1cc(Oc2ccc3cccnc3c2)ncn1
185 to 187 °C	CCC(=O)NCC=C1CCc2ccc3nn(C)cc3c21
106 °C	CCCc1cc(C(C)=O)c(O)cc1OCCCCC(=O)O
126 °C	COC(=O)c1cc(O)cc(Cl)c1O
213 °C	Nc1cc(C(=O)O)nn1-c1c(Cl)cc(C(F)(F)F)cc1Cl
149 to 151 °C	Nc1cn(-c2cncc(F)c2)nc1Cl
